The record followed here is ChEMBL document CHEMBL4421717, “Antagonists and agonists of bitter taste receptors and uses thereof” (2012).

Experiment [1] concerns the target T1, Taste receptor type 2 member 46 (Homo sapiens, UniProt P59540).
T1 sequence (P59540 whole entry): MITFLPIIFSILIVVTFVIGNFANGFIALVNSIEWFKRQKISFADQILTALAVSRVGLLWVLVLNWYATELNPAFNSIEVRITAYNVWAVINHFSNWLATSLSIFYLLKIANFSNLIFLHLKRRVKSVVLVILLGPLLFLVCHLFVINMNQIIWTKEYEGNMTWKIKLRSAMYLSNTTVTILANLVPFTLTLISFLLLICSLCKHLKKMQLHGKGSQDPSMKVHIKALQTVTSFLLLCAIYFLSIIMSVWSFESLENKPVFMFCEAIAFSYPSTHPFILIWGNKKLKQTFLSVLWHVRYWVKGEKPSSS
Kind of experiment: Activity at recombinant human N-terminal rat ST3 receptor-fused TAS2R46 expressed in HEK293T cells co-expressing Galpha16gust44 assessed as activation of 3 uM strychnine-induced intracellular calcium level by FLIPR assay. It is filed as functional, cell-based.

For experiment [2], the target named is T1, Taste receptor type 2 member 46. Kind of experiment: Antagonist activity at recombinant human N-terminal rat ST3 receptor-fused TAS2R46 expressed in HEK293T cells co-expressing Galpha16gust44 assessed as inhibition of 3 uM strychnine-induced intracellular calcium level by FLIPR assay. It is filed as functional, cell-based.

pEC50, pIC50: −log10 of the molar value.

Turning to `CC(=O)O[C@H]1C/C=C(\C)CCC2[C@H](C)C(=O)O[C@@H]2/C=C/1C` (some centres undefined), the pEC50 in experiment [1] is 5.96.

Turning to `C=C1C(=O)O[C@@H]2/C=C(\C)CC/C=C(\C)CCC12` (some centres undefined), the pEC50 in experiment [1] is 5.07.

As for `C/C1=C\[C@H]2OC(=O)[C@@H](C)C2CC/C(C)=C/CC1` (some centres undefined), the negative logarithm of the EC50 (pEC50) in experiment [1] is 5.08.

On to `C/C1=C\CC(=O)/C(C)=C/[C@H]2OC(=O)[C@@H](C)C2CC1` (some centres undefined), for which the negative logarithm of the IC50 (pIC50) in experiment [2] is 4.01.

In general, pEC50 refers to the EC50 on a negative log10 scale, so that one unit is a factor of ten. The pIC50 is the IC50 on a negative log10 scale, so that one unit is a factor of ten.
